Measured values from patent US20250295646A1, “METHODS OF USE OF T-TYPE CALCIUM CHANNEL MODULATORS” (Praxis Precision Medicines, Inc., priority 2022, published 2025).

System: adult patients with essential tremor
Test: Example 16: video-reviewed TETRAS performance subscale and upper limb score; on TETRAS Performance Subscale Total Score by Video Review, Change from Baseline, Mean (SD): test concentration or dose not given here; on TETRAS Performance Subscale Total Score by Video Review, Change from Baseline, Median: test concentration or dose not given here; on TETRAS Performance Subscale Total Score by Video Review, Mean (SD): test concentration or dose not given here; on TETRAS Performance Subscale Total Score by Video Review, Median: test concentration or dose not given here
Assay type: in vivo, human
Text: Video-reviewed TETRAS Analyses Video reviewed TETRAS assessments were generally consistent with those conducted at the clinic. Video reviewed TETRAS performance subscale total scores are summarized for Part A, the open-label titration phase of Part B, and the randomized withdrawal phase of Part B in Table 42, Table 43, and Table 44.
Video reviewed upper limb score values were generally consistent with those conducted at the clinic and are summarized for Part A, the open-label titration phase of Part B, and the randomized withdrawal phase of Part B in Table 45, Table 46, and Table 47, respectively.

[1] = Day 1, 6 hours Post - dose, Part A (N = 7)
[2] = Day 1, 6 hours Post - dose, Part B Open-Label Titration Phase (N = 17)
[3] = Day 1, 6 hours Post - dose, Part B, Formula (I) arm (N = 6)
[4] = Day 7, Part B Open-Label Titration Phase (N = 17)
[5] = Day 7, Part B, Formula (I) arm (N = 6)
[6] = Day 21, Part B Open-Label Titration Phase (N = 17)

CC(C)(C)NC(=O)CN1CCC(CNC(=O)c2cc(F)cc(Cl)c2)CC1 [compound of formula (I), N-((1-(2-(tert-butylamino)-2-oxoethyl)piperidin-4-yl)methyl)-3-chloro-5-fluorobenzamide]
TETRAS Performance Subscale Total Score by Video Review, Change from Baseline, Mean (SD) [1]: 0.29 (1.753) | TETRAS Performance Subscale Total Score by Video Review, Change from Baseline, Median [1]: 0.50 | TETRAS Performance Subscale Total Score by Video Review, Mean (SD) [1]: 24.00 (5.148) | TETRAS Performance Subscale Total Score by Video Review, Median [1]: 23.00 | TETRAS Performance Subscale Total Score by Video Review, Percentage Change from Baseline in Tremor Amplitude, Mean (SD) [1]: 1.98 (11.724) % | TETRAS Performance Subscale Total Score by Video Review, Percentage Change from Baseline in Tremor Amplitude, Median [1]: 3.53% | TETRAS Upper Limb Score by Video Review, Change from Baseline, Mean (SD) [1]: 0.21 (0.859) | TETRAS Upper Limb Score by Video Review, Change from Baseline, Median [1]: 0.00 | TETRAS Upper Limb Score by Video Review, Mean (SD) [1]: 10.93 (2.440) | TETRAS Upper Limb Score by Video Review, Median [1]: 10.00 | TETRAS Upper Limb Score by Video Review, Percentage Change from Baseline in Tremor Amplitude, Mean (SD) [1]: 3.57 (14.794) % | TETRAS Upper Limb Score by Video Review, Percentage Change from Baseline in Tremor Amplitude, Median [1]: 0.00% | TETRAS Performance Subscale Total Score by Video Review, Change from Baseline, Mean (SD) [2]: −0.74 (2.544) | TETRAS Performance Subscale Total Score by Video Review, Change from Baseline, Median [2]: −0.50 | TETRAS Performance Subscale Total Score by Video Review, Mean (SD) [2]: 20.79 (6.715) | TETRAS Performance Subscale Total Score by Video Review, Median [2]: 20.50 | TETRAS Performance Subscale Total Score by Video Review, Percentage Change from Baseline in Tremor Amplitude, Mean (SD) [2]: −4.49 (15.951) % | TETRAS Performance Subscale Total Score by Video Review, Percentage Change from Baseline in Tremor Amplitude, Median [2]: −3.53% | TETRAS Upper Limb Score by Video Review, Change from Baseline, Mean (SD) [2]: −0.29 (1.238) | TETRAS Upper Limb Score by Video Review, Change from Baseline, Median [2]: 0.00 | TETRAS Upper Limb Score by Video Review, Mean (SD) [2]: 9.47 (2.809) | TETRAS Upper Limb Score by Video Review, Median [2]: 9.50 | TETRAS Upper Limb Score by Video Review, Percentage Change from Baseline in Tremor Amplitude, Mean (SD) [2]: −4.23 (19.775) % | TETRAS Upper Limb Score by Video Review, Percentage Change from Baseline in Tremor Amplitude, Median [2]: 0.00% | TETRAS Performance Subscale Total Score by Video Review, Change from Baseline, Mean (SD) [3]: −0.42 (2.973) | TETRAS Performance Subscale Total Score by Video Review, Change from Baseline, Median [3]: −0.50 | TETRAS Performance Subscale Total Score by Video Review, Mean (SD) [3]: 21.92 (4.398) | TETRAS Performance Subscale Total Score by Video Review, Median [3]: 21.75 | TETRAS Performance Subscale Total Score by Video Review, Percentage Change from Baseline in Tremor Amplitude, Mean (SD) [3]: −2.29 (18.383) % | TETRAS Performance Subscale Total Score by Video Review, Percentage Change from Baseline in Tremor Amplitude, Median [3]: −3.47% | TETRAS Upper Limb Score by Video Review, Change from Baseline, Mean (SD) [3]: 0.33 (1.125) | TETRAS Upper Limb Score by Video Review, Change from Baseline, Median [3]: 0.75 | TETRAS Upper Limb Score by Video Review, Mean (SD) [3]: 10.25 (1.666) | TETRAS Upper Limb Score by Video Review, Median [3]: 9.50 | TETRAS Upper Limb Score by Video Review, Percentage Change from Baseline in Tremor Amplitude, Mean (SD) [3]: 5.82 (19.104) % | TETRAS Upper Limb Score by Video Review, Percentage Change from Baseline in Tremor Amplitude, Median [3]: 13.30% | TETRAS Performance Subscale Total Score by Video Review, Change from Baseline, Mean (SD) (Day 7, Part A (N = 7)): −1.25 (3.094) | TETRAS Performance Subscale Total Score by Video Review, Change from Baseline, Median (Day 7, Part A (N = 7)): −1.25 | TETRAS Performance Subscale Total Score by Video Review, Mean (SD) (Day 7, Part A (N = 7)): 21.00 (2.449) | TETRAS Performance Subscale Total Score by Video Review, Median (Day 7, Part A (N = 7)): 21.75 | TETRAS Performance Subscale Total Score by Video Review, Percentage Change from Baseline in Tremor Amplitude, Mean (SD) (Day 7, Part A (N = 7)): −7.45 (19.377) % | TETRAS Performance Subscale Total Score by Video Review, Percentage Change from Baseline in Tremor Amplitude, Median (Day 7, Part A (N = 7)): −8.23% | TETRAS Upper Limb Score by Video Review, Change from Baseline, Mean (SD) (Day 7, Part A (N = 7)): −0.25 (1.332) | TETRAS Upper Limb Score by Video Review, Change from Baseline, Median (Day 7, Part A (N = 7)): 0.00 | TETRAS Upper Limb Score by Video Review, Mean (SD) (Day 7, Part A (N = 7)): 9.83 (0.816) | TETRAS Upper Limb Score by Video Review, Median (Day 7, Part A (N = 7)): 10.00 | TETRAS Upper Limb Score by Video Review, Percentage Change from Baseline in Tremor Amplitude, Mean (SD) (Day 7, Part A (N = 7)): −3.79 (22.054) % | TETRAS Upper Limb Score by Video Review, Percentage Change from Baseline in Tremor Amplitude, Median (Day 7, Part A (N = 7)): 0.00% | TETRAS Performance Subscale Total Score by Video Review, Change from Baseline, Mean (SD) [4]: −2.28 (5.019) | TETRAS Performance Subscale Total Score by Video Review, Change from Baseline, Median [4]: −3.50 | TETRAS Performance Subscale Total Score by Video Review, Mean (SD) [4]: 20.17 (6.595) | TETRAS Performance Subscale Total Score by Video Review, Median [4]: 20.50 | TETRAS Performance Subscale Total Score by Video Review, Percentage Change from Baseline in Tremor Amplitude, Mean (SD) [4]: −13.83 (27.204) % | TETRAS Performance Subscale Total Score by Video Review, Percentage Change from Baseline in Tremor Amplitude, Median [4]: −22.26% | TETRAS Upper Limb Score by Video Review, Change from Baseline, Mean (SD) [4]: −1.15 (1.916) | TETRAS Upper Limb Score by Video Review, Change from Baseline, Median [4]: −1.50 | TETRAS Upper Limb Score by Video Review, Mean (SD) [4]: 8.75 (2.880) | TETRAS Upper Limb Score by Video Review, Median [4]: 8.50 | TETRAS Upper Limb Score by Video Review, Percentage Change from Baseline in Tremor Amplitude, Mean (SD) [4]: −17.86 (27.226) % | TETRAS Upper Limb Score by Video Review, Percentage Change from Baseline in Tremor Amplitude, Median [4]: −25.01% | TETRAS Performance Subscale Total Score by Video Review, Change from Baseline, Mean (SD) [5]: −2.00 (2.291) | TETRAS Performance Subscale Total Score by Video Review, Change from Baseline, Median [5]: −1.50 | TETRAS Performance Subscale Total Score by Video Review, Mean (SD) [5]: 20.33 (2.754) | TETRAS Performance Subscale Total Score by Video Review, Median [5]: 20.50 | TETRAS Performance Subscale Total Score by Video Review, Percentage Change from Baseline in Tremor Amplitude, Mean (SD) [5]: −12.63 (13.986) % | TETRAS Performance Subscale Total Score by Video Review, Percentage Change from Baseline in Tremor Amplitude, Median [5]: −10.23% | TETRAS Upper Limb Score by Video Review, Change from Baseline, Mean (SD) [5]: −0.88 (1.031) | TETRAS Upper Limb Score by Video Review, Change from Baseline, Median [5]: −1.00 | TETRAS Upper Limb Score by Video Review, Mean (SD) [5]: 9.00 (0.913) | TETRAS Upper Limb Score by Video Review, Median [5]: 9.00 | TETRAS Upper Limb Score by Video Review, Percentage Change from Baseline in Tremor Amplitude, Mean (SD) [5]: −14.41 (17.112) % | TETRAS Upper Limb Score by Video Review, Percentage Change from Baseline in Tremor Amplitude, Median [5]: −17.46% | TETRAS Performance Subscale Total Score by Video Review, Change from Baseline, Mean (SD) (Day 14, Part A (N = 7)): −2.92 (2.654) | TETRAS Performance Subscale Total Score by Video Review, Change from Baseline, Median (Day 14, Part A (N = 7)): −3.00 | TETRAS Performance Subscale Total Score by Video Review, Mean (SD) (Day 14, Part A (N = 7)): 19.33 (2.380) | TETRAS Performance Subscale Total Score by Video Review, Median (Day 14, Part A (N = 7)): 19.00 | TETRAS Performance Subscale Total Score by Video Review, Percentage Change from Baseline in Tremor Amplitude, Mean (SD) (Day 14, Part A (N = 7)): −17.69 (15.649) % | TETRAS Performance Subscale Total Score by Video Review, Percentage Change from Baseline in Tremor Amplitude, Median (Day 14, Part A (N = 7)): −19.21% | TETRAS Upper Limb Score by Video Review, Change from Baseline, Mean (SD) (Day 14, Part A (N = 7)): −1.33 (1.080) | TETRAS Upper Limb Score by Video Review, Change from Baseline, Median (Day 14, Part A (N = 7)): −1.50 | TETRAS Upper Limb Score by Video Review, Mean (SD) (Day 14, Part A (N = 7)): 8.75 (1.294) | TETRAS Upper Limb Score by Video Review, Median (Day 14, Part A (N = 7)): 9.25 | TETRAS Upper Limb Score by Video Review, Percentage Change from Baseline in Tremor Amplitude, Mean (SD) (Day 14, Part A (N = 7)): −21.27 (17.102) % | TETRAS Upper Limb Score by Video Review, Percentage Change from Baseline in Tremor Amplitude, Median (Day 14, Part A (N = 7)): −24.67% | TETRAS Performance Subscale Total Score by Video Review, Change from Baseline, Mean (SD) (Day 21, Part A (N = 7)): −1.00 (3.146) | TETRAS Performance Subscale Total Score by Video Review, Change from Baseline, Median (Day 21, Part A (N = 7)): −0.75 | TETRAS Performance Subscale Total Score by Video Review, Mean (SD) (Day 21, Part A (N = 7)): 21.25 (2.734) | TETRAS Performance Subscale Total Score by Video Review, Median (Day 21, Part A (N = 7)): 21.75 | TETRAS Performance Subscale Total Score by Video Review, Percentage Change from Baseline in Tremor Amplitude, Mean (SD) (Day 21, Part A (N = 7)): −5.84 (20.134) % | TETRAS Performance Subscale Total Score by Video Review, Percentage Change from Baseline in Tremor Amplitude, Median (Day 21, Part A (N = 7)): −4.59% | TETRAS Upper Limb Score by Video Review, Change from Baseline, Mean (SD) (Day 21, Part A (N = 7)): −0.67 (1.602) | TETRAS Upper Limb Score by Video Review, Change from Baseline, Median (Day 21, Part A (N = 7)): −0.25 | TETRAS Upper Limb Score by Video Review, Mean (SD) (Day 21, Part A (N = 7)): 9.42 (1.320) | TETRAS Upper Limb Score by Video Review, Median (Day 21, Part A (N = 7)): 9.50 | TETRAS Upper Limb Score by Video Review, Percentage Change from Baseline in Tremor Amplitude, Mean (SD) (Day 21, Part A (N = 7)): −9.56 (25.141) % | TETRAS Upper Limb Score by Video Review, Percentage Change from Baseline in Tremor Amplitude, Median (Day 21, Part A (N = 7)): −4.16% | TETRAS Performance Subscale Total Score by Video Review, Change from Baseline, Mean (SD) [6]: −0.96 (3.122) | TETRAS Performance Subscale Total Score by Video Review, Change from Baseline, Median [6]: −1.00 | TETRAS Performance Subscale Total Score by Video Review, Mean (SD) [6]: 21.67 (5.809) | TETRAS Performance Subscale Total Score by Video Review, Median [6]: 21.25 | TETRAS Performance Subscale Total Score by Video Review, Percentage Change from Baseline in Tremor Amplitude, Mean (SD) [6]: −5.66 (18.983) % | TETRAS Performance Subscale Total Score by Video Review, Percentage Change from Baseline in Tremor Amplitude, Median [6]: −6.88% | TETRAS Upper Limb Score by Video Review, Change from Baseline, Mean (SD) [6]: −0.67 (1.628) | TETRAS Upper Limb Score by Video Review, Change from Baseline, Median [6]: −0.50
